From patent US10125134B2 (Mirati Therapeutics, Inc., priority 2016, dated 2018)
Read-outs that look alike come from different tables or passages of the source.

Assays:
[1] = target: KRas G12C (Homo sapiens, UniProt P01116, C118S/C51S/C80L/G12C); experiment: KRas G12C Modification Assay (LCMS detection of covalent adduct); type: binding; settings: normalized percent of control; tested at 5 μM concentration for 3 hours
Description: A 10 μL aliquot of each protein solution was then transferred to a 384 well microtiter plate. Initial compound stocks were generated at fifty times their desired final assay concentration in DMSO.
Exemplary compounds of Formula (I) were diluted 25-fold into K-Ras Assay Buffer to a final of two times their final concentration. A 10 μL aliquot of each diluted compound solution was then added to each of the protein solutions in the microtiter plate to initiate reaction. […] At each time point, the reactions were quenched with 20 μL of a 25 mM acetic acid solution. […] Once all reactions were quenched, the plates were heat sealed and the samples were injected into a LC/MS system for data acquisition.
Samples were injected in their liquid phase onto a C-3 reverse phase column to remove assay buffer and prepare the samples for mass spectrometer. The proteins were eluted from the column using an acetonitrile gradient and fed directly into the mass analyzer. Initial raw data analysis took place in Agilent MassHunter software immediately post data acquisition.
Raw data analysis of the intact protein was exclusively a deconvolution of the multiple charge states of each protein in solution using a maximum entropy deconvolution provided in Mass Hunter. To minimize complexity, only the data over limited mass ranges were considered for analysis, with a minimum of one Dalton mass step intervals. The heights of all masses identified during raw data analysis were exported to be further analyzed in Spotfire® data analysis software.
Final data analysis was a multistep process in the Spotfire® data analysis software package. Briefly, each protein mass was calculated as a percent of the total signal of that sample, that percentage was then normalized to the percentage of signal of the protein in the absence of reactive compounds. Those normalized signals were reported as normalized percent of control (POC). […] Key: “A”≤25% POC; “B”>25% POC−≤50% POC; “C”>50% POC and ND=not determined.

[2] = test system: NCI-H358 cells (express KRas G12C), Phospho-ERK; experiment: Cellular inhibition of KRas G12C: Phospho-ERK in NCI-H358 cells; type: cell-based; settings: pERK(Thr202/Tyr204) normalized with GAPDH, NCI-H358 cells, 3 hours, read-out: IC50
Description: The cellular inhibition of KRAs G12C by exemplary compounds of the present invention was determined by measuring the amount of a downstream marker of KRas activity, phosphorylated ERK (“Phospho-ERK”).
Cells were plated in poly-D-Lysine coated 96-well plates at a concentration of 50,000 cells/well and allowed to attach for 8-12 hours. Diluted compounds were then added at a final concentration of 0.5% DMSO. After 3 hours, the medium was removed, 150 μL of 4% formaldehyde was added and the plates were incubated for 20 minutes. The plates were washed with PBS, and permeabilized using 150 μL of ice cold 100% methanol for 10 minutes. Non-specific antibody binding to the plates was blocked using 100 μL Licor Blocking Buffer (Li-Cor Biotechnology, Lincoln Nebr.) for 1 hour at room temperature. Positive control samples and samples lacking cells were parallel processed with test samples as standards.
The amount Phospho-ERK was determined using an antibody specific for the phosphorylated form of ERK and compared to the amount of GAPDH. […] The plates were incubated for 2 hours at room temperature. The plates were washed with PBS+0.05% Tween 20.
Secondary antibodies used to visualize primary antibodies were added as follows: Anti-rabbit-680 diluted 1:1000 and Anti-mouse-800 diluted 1:1000 in Licor Block+0.05% Tween 20 and incubated for 1 hour at room temperature. The plates were washed with PBS+0.05% Tween 20. A 100 μL aliquot of PBS was added to each well and the plates were read on a LICOR AERIUS plate reader.
The pERK(Thr202/Tyr204) signal was normalized with the GAPDH signal and percent of DMSO control values were calculated. IC50 values were generated using a 4 parameter fit of the dose response curve. Key: “A”≥0.0001−≤1 μM; and “B”>1 μM.

| Compound | POC [1] | IC50 ([2]; Homo sapiens, NCI-H358, 3 h) [nM] | IC50 ([2]; Homo sapiens) [nM] | IC50 [2] [nM] |
| --- | --- | --- | --- | --- |
| C=CC(=O)N1CCN(c2nc(OC[C@@H]3C[C@H](F)CN3C)nc3c2CCN(c2cccc4ccccc24)C3)CC1CC#N (stereo partly drawn) [Example 221, 2-(1-acryloyl-4-(2-(((2S,4S)-4-fluoro-1-methylpyrrolidin-2-yl)methoxy)-7-(naphthalen-1-yl)-5,6,7,8-tetrahydropyrido[3,4-d]pyrimidin-4-yl)piperazin-2-yl)acetonitrile] | C (“C”>50% POC) | 0.1 to 1000 |  |  |
| C=CC(=O)N1CCN(c2nc(OC[C@@H]3CCCN3C)nc3c2CCN(c2cc(O)cc4ccccc24)C3)CC1CC#N (stereo partly drawn) [Example 182, 2-[4-[7-(3-hydroxy-1-naphthyl)-2-[[(2S)-1-methylpyrrolidin-2-yl]methoxy]-6,8-dihydro-5H-pyrido[3,4-d]pyrimidin-4-yl]-1-prop-2-enoyl-piperazin-2-yl]acetonitrile] | C (“C”>50% POC) |  | 0.1 to 1000 |  |
| C=CC(=O)N1CCN(c2nc(OC[C@@H]3CCCN3C)nc3c2CCN(c2cccc4ccc(Cl)cc24)C3)CC1CC#N (stereo partly drawn) [Example 253, 2-(1-acryloyl-4-(7-(7-chloronaphthalen-1-yl)-2-(((S)-1-methylpyrrolidin-2-yl)methoxy)-5,6,7,8-tetrahydropyrido[3,4-d]pyrimidin-4-yl)piperazin-2-yl)acetonitrile] | C (“C”>50% POC) | 0.1 to 1000 |  |  |
| C=CC(=O)N1CCN(c2nc(OC[C@@H]3CCCN3C)nc3c2CCN(c2cccc(C)c2C(F)(F)F)C3)C[C@@H]1CC#N [Example 364, 2-[(2S)-4-[2-[[(2S)-1-methylpyrrolidin-2-yl]methoxy]-7-[3-methyl-2-(trifluoromethyl)phenyl]-6,8-dihydro-5H-pyrido[3,4-d]pyrimidin-4-yl]-1-prop-2-enoyl-piperazin-2-yl]acetonitrile] | C (“C”>50% POC) | 0.1 to 1000 |  |  |
| C=CC(=O)N1CCN(c2nc(OC[C@@H]3CCCN3C)nc3c2CCN(c2nccc4ccccc24)C3)CC1CC#N (stereo partly drawn) [Example 289, 2-[4-[7-(1-isoquinolyl)-2-[[(2S)-1-methylpyrrolidin-2-yl]methoxy]-6,8-dihydro-5H-pyrido[3,4-d]pyrimidin-4-yl]-1-prop-2-enoyl-piperazin-2-yl]acetonitrile] | C (“C”>50% POC) |  |  | > 1000 |

Second part, led by results:

| POC [1] | Compound | IC50 ([2]; Homo sapiens, NCI-H358, 3 h) [nM] | IC50 ([2]; Homo sapiens) [nM] | IC50 [2] [nM] |
| --- | --- | --- | --- | --- |
| C (“C”>50% POC) | C=CC(=O)N1CCN(c2nc(OC[C@H]3CCN(C)C3)nc3c2CCN(c2cc(O)cc4ccccc24)C3)CC1 [Example 188, (S)-1-(4-(7-(3-hydroxynaphthalen-1-yl)-2-((1-methylpyrrolidin-3-yl)methoxy)-5,6,7,8-tetrahydropyrido[3,4-d]pyrimidin-4-yl)piperazin-1-yl)prop-2-en-1-one] | 0.1 to 1000 |  |  |
| C (“C”>50% POC) | C=CC(=O)N1CCN(c2nc(OCC3COCCN3C)nc3c2CCN(c2cc(O)cc4ccccc24)C3)CC1 (stereo not drawn) [Example 194, 1-(4-(7-(3-hydroxynaphthalen-1-yl)-2-((4-methylmorpholin-3-yl)methoxy)-5,6,7,8-tetrahydropyrido[3,4-d]pyrimidin-4-yl)piperazin-1-yl)prop-2-en-1-one] | > 1000 |  |  |
| C (“C”>50% POC) | C=CC(=O)N1CCN(c2nc(OCC3CN(C)CCN3)nc3c2CCN(c2cc(O)cc4ccccc24)C3)CC1 (stereo not drawn) [Example 80, 1-(4-(7-(3-hydroxynaphthalen-1-yl)-2-((4-methylpiperazin-2-yl)methoxy)-5,6,7,8-tetrahydropyrido[3,4-d]pyrimidin-4-yl)piperazin-1-yl)prop-2-en-1-one] | > 1000 |  |  |
| C (“C”>50% POC) | C=CC(=O)N1CCN(c2nc(OCCCN3CCCOCC3)nc3c2CCN(c2cc(O)cc4ccccc24)C3)CC1 [Example 101, 1-(4-(2-(3-(1,4-oxazepan-4-yl)propoxy)-7-(3-hydroxynaphthalen-1-yl)-5,6,7,8-tetrahydropyrido[3,4-d]pyrimidin-4-yl)piperazin-1-yl)prop-2-en-1-one] | 0.1 to 1000 |  |  |
